“And” between values parts separate entries of the source, which are not always exact repeats. Equal entries are not always repeated. Inconclusive results and toxic doses are left out. How the source made its calls: active means survival T/C of 150% or more; inactive means T/C below 125% in these data.
Tested on: CD2F1 mice, L1210 leukemia ip, survival T/C
Experiment: NCI In Vivo Anticancer Drug Screen. Data for tumor model L1210 Leukemia (intraperitoneal) in CD2F1 (CDF1) mice
Conditions: higher = longer survival
Outline: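 In this screen, transplantable tumors were grown in mice given either the compound or its vehicle. Results were expressed as the treated measurement relative to the control measurement.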

[1] = endpoint: mean survival time, dose: 100.0 mg/kg/injection, schedule: Q04DX002 (ip), vehicle: saline with Tween-80
[2] = endpoint: mean survival time, dose: 200.0 mg/kg/injection, schedule: Q04DX002 (ip), vehicle: saline with Tween-80
[3] = endpoint: mean survival time, dose: 400.0 mg/kg/injection, schedule: Q04DX002 (ip), vehicle: saline with Tween-80

Measured: T/C

CCc1nc(N)nc(N)c1-c1ccc(Cl)cc1
inactive: endpoint: mean survival time, dose: 2.0 mg/kg/injection, schedule: Q03HX008 (ip), vehicle: saline 92 % of control | endpoint: mean survival time, dose: 2.0 mg/kg/injection, schedule: Q03HX016 (ip), vehicle: saline 89 % of control | endpoint: mean survival time, dose: 2.0 mg/kg/injection, schedule: Q03HX024 (ip), vehicle: saline 88 % of control | endpoint: mean survival time, dose: 4.0 mg/kg/injection, schedule: Q03HX008 (ip), vehicle: saline 90 % of control | endpoint: mean survival time, dose: 4.0 mg/kg/injection, schedule: Q03HX016 (ip), vehicle: saline 91 % of control | endpoint: mean survival time, dose: 4.0 mg/kg/injection, schedule: Q03HX024 (ip), vehicle: saline 86 % of control | endpoint: mean survival time, dose: 8.0 mg/kg/injection, schedule: Q01DX009 (oral), vehicle: saline 92 % of control | endpoint: mean survival time, dose: 8.0 mg/kg/injection, schedule: Q03HX008 (ip), vehicle: saline 92 % of control | endpoint: mean survival time, dose: 8.0 mg/kg/injection, schedule: Q03HX016 (ip), vehicle: saline 87 % of control | endpoint: mean survival time, dose: 8.0 mg/kg/injection, schedule: Q03HX024 (ip), vehicle: saline 88 % of control and 93 % of control | endpoint: mean survival time, dose: 16.0 mg/kg/injection, schedule: Q01DX001 (ip), vehicle: saline 107 % of control | endpoint: mean survival time, dose: 16.0 mg/kg/injection, schedule: Q01DX001 (oral), vehicle: saline 101 % of control | endpoint: mean survival time, dose: 16.0 mg/kg/injection, schedule: Q01DX009 (ip), vehicle: saline 101 % of control | endpoint: mean survival time, dose: 16.0 mg/kg/injection, schedule: Q01DX009 (oral), vehicle: saline 95 % of control | endpoint: mean survival time, dose: 16.0 mg/kg/injection, schedule: Q03HX008 (ip), vehicle: saline 89 % of control and 91 % of control | endpoint: mean survival time, dose: 16.0 mg/kg/injection, schedule: Q03HX016 (ip), vehicle: saline 91 % of control and 100 % of control | endpoint: mean survival time, dose: 16.0 mg/kg/injection, schedule: Q03HX024 (ip), vehicle: saline 90 % of control and 96 % of control | endpoint: mean survival time, dose: 16.0 mg/kg/injection, schedule: Q04DX003 (ip), vehicle: saline 88 % of control | endpoint: mean survival time, dose: 16.0 mg/kg/injection, schedule: Q08DX002 (ip), vehicle: saline 97 % of control | endpoint: mean survival time, dose: 32.0 mg/kg/injection, schedule: Q01DX001 (ip), vehicle: saline 98 % of control | endpoint: mean survival time, dose: 32.0 mg/kg/injection, schedule: Q01DX001 (oral), vehicle: saline 96 % of control | endpoint: mean survival time, dose: 32.0 mg/kg/injection, schedule: Q01DX009 (ip), vehicle: saline 106 % of control | endpoint: mean survival time, dose: 32.0 mg/kg/injection, schedule: Q01DX009 (oral), vehicle: saline 112 % of control | endpoint: mean survival time, dose: 32.0 mg/kg/injection, schedule: Q04DX003 (ip), vehicle: saline 87 % of control | endpoint: mean survival time, dose: 32.0 mg/kg/injection, schedule: Q08DX002 (ip), vehicle: saline 94 % of control | endpoint: mean survival time, dose: 64.0 mg/kg/injection, schedule: Q01DX001 (ip), vehicle: saline 100 % of control | endpoint: mean survival time, dose: 64.0 mg/kg/injection, schedule: Q01DX001 (oral), vehicle: saline 98 % of control | endpoint: mean survival time, dose: 64.0 mg/kg/injection, schedule: Q01DX009 (ip), vehicle: saline 108 % of control | endpoint: mean survival time, dose: 64.0 mg/kg/injection, schedule: Q01DX009 (oral), vehicle: saline 120 % of control and 96 % of control | endpoint: mean survival time, dose: 64.0 mg/kg/injection, schedule: Q04DX003 (ip), vehicle: saline 86 % of control and 95 % of control | endpoint: mean survival time, dose: 64.0 mg/kg/injection, schedule: Q08DX002 (ip), vehicle: saline 95 % of control | endpoint: mean survival time, dose: 128.0 mg/kg/injection, schedule: Q01DX001 (ip), vehicle: saline 100 % of control | endpoint: mean survival time, dose: 128.0 mg/kg/injection, schedule: Q01DX001 (oral), vehicle: saline 91 % of control | endpoint: mean survival time, dose: 128.0 mg/kg/injection, schedule: Q04DX003 (ip), vehicle: saline 96 % of control | endpoint: mean survival time, dose: 128.0 mg/kg/injection, schedule: Q08DX002 (ip), vehicle: saline 93 % of control and 101 % of control

COc1cc2c(c(OC)c1OC)-c1cccc(=O)cc1C(NC(C)=O)CC2 (stereo not drawn)
inactive: endpoint: median survival time, dose: 2.5 mg/kg/injection, schedule: Q01DX005 (ip), vehicle: saline 107 % of control | endpoint: median survival time, dose: 5.0 mg/kg/injection, schedule: Q01DX005 (ip), vehicle: saline 111 % of control | endpoint: median survival time, dose: 10.0 mg/kg/injection, schedule: Q01DX005 (ip), vehicle: saline 108 % of control and 111 % of control | endpoint: median survival time, dose: 20.0 mg/kg/injection, schedule: Q01DX005 (ip), vehicle: saline 117 % of control and 111 % of control | endpoint: median survival time, dose: 40.0 mg/kg/injection, schedule: Q01DX005 (ip), vehicle: saline 116 % of control and 111 % of control | endpoint: median survival time, dose: 80.0 mg/kg/injection, schedule: Q01DX005 (ip), vehicle: saline 122 % of control | endpoint: median survival time, dose: 160.0 mg/kg/injection, schedule: Q01DX005 (ip), vehicle: saline 122 % of control

CC(C)C(=O)Nc1ccc(Cl)cc1
inactive: endpoint: mean survival time, dose: 100.0 mg/kg/injection, schedule: Q01DX009 (ip), vehicle: saline with Tween-80 100 % of control | endpoint: mean survival time, dose: 200.0 mg/kg/injection, schedule: Q01DX009 (ip), vehicle: saline with Tween-80 97 % of control

N#CCCC#N (tested in a mixture with another compound)
inactive: endpoint: mean survival time, dose: 50.0 mg/kg/injection, schedule: Q04DX002 (ip), vehicle: saline with Tween-80 96 % of control and 100 % of control | [1] 96 % of control and 107 % of control | [2] 100 % of control and 96 % of control | [3] 92 % of control and 100 % of control

CCN(CC)C(=O)c1ccc[n+](CC(=O)Nc2ccccc2)c1
inactive: endpoint: mean survival time, dose: 25.0 mg/kg/injection, schedule: Q01DX009 (ip), vehicle: saline 108 % of control | endpoint: mean survival time, dose: 50.0 mg/kg/injection, schedule: Q01DX009 (ip), vehicle: saline 105 % of control | endpoint: mean survival time, dose: 100.0 mg/kg/injection, schedule: Q01DX009 (ip), vehicle: saline 97 % of control | endpoint: mean survival time, dose: 100.0 mg/kg/injection, schedule: Q04DX003 (ip), vehicle: saline 104 % of control

Cc1c([N+](=O)[O-])cc(C(C)(C)C)c(OS(C)(=O)=O)c1[N+](=O)[O-]
inactive: [1] 105 % of control

CCOC(=O)c1ncn(C2OC(CO)C(O)C2O)c1N (stereo not drawn)
inactive: endpoint: mean survival time, dose: 12.5 mg/kg/injection, schedule: Q01DX005 (ip), vehicle: water 97 % of control | endpoint: mean survival time, dose: 25.0 mg/kg/injection, schedule: Q01DX005 (ip), vehicle: water 98 % of control | endpoint: mean survival time, dose: 50.0 mg/kg/injection, schedule: Q01DX005 (ip), vehicle: water 103 % of control | endpoint: mean survival time, dose: 100.0 mg/kg/injection, schedule: Q01DX005 (ip), vehicle: water 101 % of control | endpoint: mean survival time, dose: 200.0 mg/kg/injection, schedule: Q01DX005 (ip), vehicle: water 97 % of control

CC(C)(C)N1CC(C(O)(c2ccccc2)c2ccccc2)C1
inactive: endpoint: mean survival time, dose: 25.0 mg/kg/injection, schedule: Q01DX001 (ip), vehicle: saline with Tween-80 101 % of control | endpoint: mean survival time, dose: 50.0 mg/kg/injection, schedule: Q01DX001 (ip), vehicle: saline with Tween-80 101 % of control

[Cl][Fe]([Cl])([Cl])[Cl].c1ccc(-c2cc(-c3ccccc3)[o+]c(-c3ccccc3)c2)cc1
inactive: endpoint: mean survival time, dose: 25.0 mg/kg/injection, schedule: Q04DX003 (ip), vehicle: saline with Tween-80 87 % of control | endpoint: mean survival time, dose: 50.0 mg/kg/injection, schedule: Q04DX003 (ip), vehicle: saline with Tween-80 87 % of control | endpoint: mean survival time, dose: 100.0 mg/kg/injection, schedule: Q04DX003 (ip), vehicle: saline with Tween-80 86 % of control and 91 % of control

CCCCCCCCOc1ccc(Cl)cc1Cl
inactive: [1] 96 % of control | [2] 104 % of control | [3] 104 % of control

CNC(=O)OCC1C2=C(C(=O)C(C)=C(N)C2=O)N2CC3C(N3C)C12OC (stereo not drawn)
inactive: endpoint: mean survival time, dose: 75.0 mg/kg/injection, schedule: Q01DX001 (ip), vehicle: carboxymethylcellulose (CMC) 113 % of control | endpoint: mean survival time, dose: 150.0 mg/kg/injection, schedule: Q01DX001 (ip), vehicle: carboxymethylcellulose (CMC) 113 % of control
